From patent publication US10065941B2, “Aminotriazine derivative and pharmaceutical composition comprising the same” (Shionogi & Co., Ltd., priority 2013, dated 2018)

Each molecule was assayed against human P2X3 receptor (Homo sapiens (Human), UniProt P56373) (assay: Evaluation of human P2X3 receptor inhibitory activity (Test Example 1)). Details: C6BU-1 cell transfected with human P2X3 receptor gene, FLIPR 384.
Chain of human P2X3 receptor (P56373 whole entry): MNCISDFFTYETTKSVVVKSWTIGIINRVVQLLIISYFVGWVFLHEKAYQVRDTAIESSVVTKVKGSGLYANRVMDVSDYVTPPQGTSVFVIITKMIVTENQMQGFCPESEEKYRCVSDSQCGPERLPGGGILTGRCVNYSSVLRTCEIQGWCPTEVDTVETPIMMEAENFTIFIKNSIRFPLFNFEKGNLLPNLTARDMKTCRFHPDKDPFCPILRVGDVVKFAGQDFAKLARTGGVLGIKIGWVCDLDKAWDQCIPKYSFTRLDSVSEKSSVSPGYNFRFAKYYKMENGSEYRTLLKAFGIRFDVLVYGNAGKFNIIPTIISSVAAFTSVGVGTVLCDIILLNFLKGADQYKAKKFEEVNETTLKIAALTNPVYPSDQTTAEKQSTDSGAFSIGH
Assay type: cell-based
Protocol: Stably expressing cell line (C6BU-1 cell transfected with human P2X3 receptor gene (GenBank accession number Y07683) was used. The cells were seeded in a 384-well PDL-coated microtiter plate at a concentration of 3000 cells/well and cultured in the medium (8.3% fetal bovine serum, 8.3% horse serum, and 1% antibiotic and antifungal in DMEM) for one day at 37° C. under 5% carbon dioxide atmosphere. The medium was replaced with 4 μM Fluo-3-AM solution (20 mM HEPES, 137 mM NaCl, 2.7 mM KCl, 0.9 mM MgCl2, 5.0 mM CaCl2, 5.6 mM D-glucose, 2.5 mM probenecid, 0.5% BSA, and 0.04% Pluronic F-127, pH 7.5) and incubated at 37° C. under 5% dioxide carbon atmosphere for one hour. The plate was washed with washing buffer (20 mM HEPES, 137 mM NaCl, 2.7 mM KCl, 0.9 mM MgCl2, 5.0 mM CaCl2, 5.6 mM D-glucose, 2.5 mM probenecid, pH7.5), and each well was added with 20 μL of the washing buffer. The plate was placed in High-Throughput Screening System FLIPR 384 (Molecular Device Co.). Measurement of fluorescence intensity by FLIPR 384 was started, and 20 μL of DMSO solutions containing different concentrations of the test compound as prepared by dilution with dilution buffer (20 mM HEPES, 137 mM NaCl, 2.7 mM KCl, 0.9 mM MgCl2, 5.0 mM CaCl2, 5.6 mM D-glucose, 2.5 mM probenecid, 0.1% Pluronic F-127, pH7.5) were dispensed to each well through the built-in automatic dispenser. Five minutes after, 150 nM ATP solution (25 μL) prepared by dilution with the dilution buffer was dispensed through the built-in automatic dispenser, and the measurement of fluorescence intensity was continued for 4 min. For each well, the specific maximum fluorescence intensity was calculated as the ratio of the maximum fluorescence intensity after addition of the ATP solution to the fluorescence intensity at the starting of the measurement. […] The specific maximum fluorescence intensity and IC50 were calculated using Spotfire (Science & Technology Systems, Inc.)
`C[C@@H](Cn1c(=O)[nH]/c(=N\c2ccc(Oc3cc(Cl)ccn3)cc2)n(Cc2ccc(Cl)cc2)c1=O)C(=O)O` [Compound I-065] showed an IC50 of 8 nM.
Work on `CCOC(=O)C1(Cn2c(=O)[nH]/c(=N\c3ccc(Oc4ncccc4F)cc3)n(Cc3ccc(Cl)cc3)c2=O)CC1` [Compound I-066] yielded an IC50 of 15 nM.
For `O=C(O)C1(Cn2c(=O)[nH]/c(=N\c3ccc(Oc4ncccc4F)cc3)n(Cc3ccc(Cl)cc3)c2=O)CC1` [Compound I-067], the IC50 was 11 nM.
For `COC(=O)[C@@H](C)Cn1c(=O)[nH]/c(=N\c2ccc(Oc3cc(F)ccn3)cc2)n(Cc2ccc(Cl)cc2)c1=O` [Compound I-068], the IC50 was 5 nM.
Work on `COc1ccnc(Oc2ccc(/N=c3\[nH]c(=O)n(C[C@H](C)C(=O)O)c(=O)n3Cc3ccc(Cl)cc3)cc2)c1` [Compound I-069] yielded an IC50 of 7 nM.
For `COC(=O)[C@H](C)[C@H](C)n1c(=O)[nH]/c(=N\c2ccc(Oc3ccc(OC(F)F)cn3)cc2)n(Cc2ccc(Cl)cc2)c1=O` [Compound I-071], the IC50 was 38 nM.
In the case of `C[C@@H](C(=O)O)[C@H](C)n1c(=O)[nH]/c(=N\c2ccc(Oc3ccc(OC(F)F)cn3)cc2)n(Cc2ccc(Cl)cc2)c1=O` [Compound I-072], the IC50 is reported as 6 nM.
With `COC(=O)[C@H](C)[C@H](C)n1c(=O)[nH]/c(=N\c2ccc(Oc3ccc(C)cn3)cc2)n(Cc2ccc(Cl)cc2)c1=O` [Compound I-073] the IC50 was 15 nM.
Molecule `Cc1ccc(Oc2ccc(/N=c3\[nH]c(=O)n([C@@H](C)[C@@H](C)C(=O)O)c(=O)n3Cc3ccc(Cl)cc3)cc2)nc1` [Compound I-074] has an IC50 of 5 nM.
For `COC(=O)[C@H](C)[C@H](C)n1c(=O)[nH]/c(=N\c2ccc(Oc3cc(C#N)ccn3)cc2)n(Cc2ccc(Cl)cc2)c1=O` [Compound I-075], the IC50 was 21 nM.
In the case of `COC(=O)[C@@H](C)Cn1c(=O)[nH]/c(=N\c2ccc(Oc3cc(C)ccn3)cc2)n(Cc2ccc(Cl)cc2)c1=O` [Compound I-076], the IC50 is reported as 22 nM.
`Cc1cccnc1Oc1ccc(/N=c2\[nH]c(=O)n(C[C@H](C)C(=O)O)c(=O)n2Cc2ccc(Cl)cc2)cc1` [Compound I-077] gave an IC50 of 10 nM.
With `Cc1cccnc1Oc1ccc(/N=c2\[nH]c(=O)n(CC(C)(C)C(=O)O)c(=O)n2Cc2ccc(Cl)cc2)cc1` [Compound I-078] the IC50 was 19 nM.
For `COc1ccc(Oc2ccc(/N=c3\[nH]c(=O)n(C[C@H](C)C(=O)O)c(=O)n3Cc3ccc(Cl)cc3)cc2)nc1` [Compound I-079], the IC50 was 5 nM.
`Cc1ccnc(Oc2ccc(/N=c3\[nH]c(=O)n(C[C@H](C)C(=O)O)c(=O)n3Cc3ccc(Cl)cc3)cc2)c1` [Compound I-080] was tested, and the IC50 was 10 nM.
For `COC(=O)C(C)(C)Cn1c(=O)[nH]/c(=N\c2ccc(Oc3cc(Cl)ccn3)cc2)n(Cc2ccc(Cl)cc2)c1=O` [Compound I-081], the IC50 was 38 nM.
`COC(=O)[C@@H](C)Cn1c(=O)[nH]/c(=N\c2ccc(Oc3cc(C(F)(F)F)ccn3)cc2)n(Cc2ccc(Cl)cc2)c1=O` [Compound I-082] was tested, and the IC50 was 112 nM.
With `COC(=O)[C@@H](C)Cn1c(=O)[nH]/c(=N\c2ccc(Oc3ccc(CO)cn3)cc2)n(Cc2ccc(Cl)cc2)c1=O` [Compound I-083] the IC50 was 6 nM.
Molecule `C[C@@H](Cn1c(=O)[nH]/c(=N\c2ccc(Oc3ccc(CO)cn3)cc2)n(Cc2ccc(Cl)cc2)c1=O)C(=O)O` [Compound I-084] has an IC50 of 8 nM.
In the case of `COC(=O)C(C)(C)Cn1c(=O)[nH]/c(=N\c2ccc(Oc3cc(C(F)(F)F)ccn3)cc2)n(Cc2ccc(Cl)cc2)c1=O` [Compound I-085], the IC50 is reported as 225 nM.
In the case of `CC(C)(Cn1c(=O)[nH]/c(=N\c2ccc(Oc3cc(Cl)ccn3)cc2)n(Cc2ccc(Cl)cc2)c1=O)C(=O)O` [Compound I-086], the IC50 is reported as 33 nM.
Work on `COC(=O)[C@H](C)[C@H](C)n1c(=O)[nH]/c(=N\c2ccc(Oc3cc(Cl)ccn3)cc2)n(Cc2ccc(Cl)cc2)c1=O` [Compound I-087] yielded an IC50 of 107 nM.
In the case of `C[C@@H](Cn1c(=O)[nH]/c(=N\c2ccc(Oc3cc(C(F)(F)F)ccn3)cc2)n(Cc2ccc(Cl)cc2)c1=O)C(=O)O` [Compound I-088], the IC50 is reported as 15 nM.
Molecule `CCOC(=O)C[C@H](O)Cn1c(=O)[nH]/c(=N\c2ccc(Oc3ccc(F)cn3)cc2)n(Cc2ccc(Cl)cc2)c1=O` [Compound I-089] has an IC50 of 8 nM.
`O=C(O)C[C@H](O)Cn1c(=O)[nH]/c(=N\c2ccc(Oc3ccc(F)cn3)cc2)n(Cc2ccc(Cl)cc2)c1=O` [Compound I-090] showed an IC50 of 72 nM.
With `C[C@@H](C(=O)O)[C@H](C)n1c(=O)[nH]/c(=N\c2ccc(Oc3cc(Cl)ccn3)cc2)n(Cc2ccc(Cl)cc2)c1=O` [Compound I-091] the IC50 was 10 nM.
In the case of `CC(C)(Cn1c(=O)[nH]/c(=N\c2ccc(Oc3cc(C(F)(F)F)ccn3)cc2)n(Cc2ccc(Cl)cc2)c1=O)C(=O)O` [Compound I-092], the IC50 is reported as 68 nM.
In the case of `COc1ccc(Oc2ccc(/N=c3\[nH]c(=O)n(CC(C)(C)C(=O)O)c(=O)n3Cc3ccc(Cl)cc3)cc2)nc1` [Compound I-093], the IC50 is reported as 16 nM.
Work on `COc1ccc(Oc2ccc(/N=c3\[nH]c(=O)n([C@@H](C)[C@@H](C)C(=O)O)c(=O)n3Cc3ccc(Cl)cc3)cc2)nc1` [Compound I-094] yielded an IC50 of 11 nM.
With `COC(=O)[C@H](C)[C@H](C)n1c(=O)[nH]/c(=N\c2ccc(Oc3ncccc3F)cc2)n(Cc2ccc(C)cc2)c1=O` [Compound I-095] the IC50 was 9 nM.
`Cc1ccc(Cn2c(=O)n([C@@H](C)[C@@H](C)C(=O)O)c(=O)[nH]/c2=N\c2ccc(Oc3ncccc3F)cc2)cc1` [Compound I-096] gave an IC50 of 8 nM.
For `COC(=O)[C@@H](C)Cn1c(=O)[nH]/c(=N\c2ccc(Oc3ccc(Cl)cn3)cc2)n(Cc2ccc(C)cc2)c1=O` [Compound I-097], the IC50 was 5 nM.
In the case of `COC(=O)C(C)(C)Cn1c(=O)[nH]/c(=N\c2ccc(Oc3ccc(Cl)cn3)cc2)n(Cc2ccc(C)cc2)c1=O` [Compound I-098], the IC50 is reported as 7 nM.
`COC(=O)[C@H](Cn1c(=O)[nH]/c(=N\c2ccc(Oc3ncccc3F)cc2)n(Cc2ccc(Cl)cc2)c1=O)OC` [Compound I-099] was tested, and the IC50 was 6 nM.
In the case of `Cc1ccc(Cn2c(=O)n(C[C@H](C)C(=O)O)c(=O)[nH]/c2=N\c2ccc(Oc3ccc(Cl)cn3)cc2)cc1` [Compound I-100], the IC50 is reported as 4 nM.
With `Cc1ccc(Cn2c(=O)n(CC(C)(C)C(=O)O)c(=O)[nH]/c2=N\c2ccc(Oc3ccc(Cl)cn3)cc2)cc1` [Compound I-101] the IC50 was 5 nM.
In the case of `CO[C@@H](Cn1c(=O)[nH]/c(=N\c2ccc(Oc3ncccc3F)cc2)n(Cc2ccc(Cl)cc2)c1=O)C(=O)O` [Compound I-102], the IC50 is reported as 5 nM.
For `COC(=O)[C@H](C)[C@H](C)n1c(=O)[nH]/c(=N\c2ccc(Oc3ccc(F)cn3)cc2)n(Cc2ccc(C)cc2)c1=O` [Compound I-103], the IC50 was 7 nM.
`COC(=O)[C@H](C)[C@H](C)n1c(=O)[nH]/c(=N\c2ccc(Oc3cccc(F)n3)cc2)n(Cc2ccc(C)cc2)c1=O` [Compound I-104] was tested, and the IC50 was 5 nM.
With `Cc1ccc(Cn2c(=O)n([C@@H](C)[C@@H](C)C(=O)O)c(=O)[nH]/c2=N\c2ccc(Oc3ccc(F)cn3)cc2)cc1` [Compound I-105] the IC50 was 7 nM.
`Cc1ccc(Cn2c(=O)n([C@@H](C)[C@@H](C)C(=O)O)c(=O)[nH]/c2=N\c2ccc(Oc3cccc(F)n3)cc2)cc1` [Compound I-106] showed an IC50 of 6 nM.
`COC(=O)[C@H](C)[C@H](C)n1c(=O)[nH]/c(=N\c2ccc(Oc3cc(C)ccn3)cc2)n(Cc2ccc(Cl)cc2)c1=O` [Compound I-107] showed an IC50 of 31 nM.
With `COC(=O)[C@@H](C)Cn1c(=O)[nH]/c(=N\c2ccc(Oc3ccc(C)cn3)cc2)n(Cc2ccc(C)cc2)c1=O` [Compound I-108] the IC50 was 4 nM.
In the case of `COC(=O)[C@H](C)[C@H](C)n1c(=O)[nH]/c(=N\c2ccc(Oc3ccc(C)cn3)cc2)n(Cc2ccc(C)cc2)c1=O` [Compound I-109], the IC50 is reported as 6 nM.
`COC(=O)C(C)(C)Cn1c(=O)[nH]/c(=N\c2ccc(Oc3ccc(C)cn3)cc2)n(Cc2ccc(C)cc2)c1=O` [Compound I-110] showed an IC50 of 4 nM.
`Cc1ccnc(Oc2ccc(/N=c3\[nH]c(=O)n([C@@H](C)[C@@H](C)C(=O)O)c(=O)n3Cc3ccc(Cl)cc3)cc2)c1` [Compound I-111] showed an IC50 of 9 nM.
`Cc1ccc(Cn2c(=O)n(C[C@H](C)C(=O)O)c(=O)[nH]/c2=N\c2ccc(Oc3ccc(C)cn3)cc2)cc1` [Compound I-112] was tested, and the IC50 was 4 nM.
`Cc1ccc(Cn2c(=O)n([C@@H](C)[C@@H](C)C(=O)O)c(=O)[nH]/c2=N\c2ccc(Oc3ccc(C)cn3)cc2)cc1` [Compound I-113] showed an IC50 of 5 nM.
Molecule `Cc1ccc(Cn2c(=O)n(CC(C)(C)C(=O)O)c(=O)[nH]/c2=N\c2ccc(Oc3ccc(C)cn3)cc2)cc1` [Compound I-114] has an IC50 of 6 nM.
In the case of `COC(=O)[C@@H](C)Cn1c(=O)[nH]/c(=N\c2ccc(Oc3cccc(Cl)n3)cc2)n(Cc2ccc(C)cc2)c1=O` [Compound I-115], the IC50 is reported as 6 nM.
`COC(=O)C(C)(C)Cn1c(=O)[nH]/c(=N\c2ccc(Oc3cccc(Cl)n3)cc2)n(Cc2ccc(C)cc2)c1=O` [Compound I-116] showed an IC50 of 7 nM.
`Cc1ccc(Cn2c(=O)n(C[C@H](C)C(=O)O)c(=O)[nH]/c2=N\c2ccc(Oc3ncccc3Cl)cc2)cc1` [Compound I-117] gave an IC50 of 5 nM.
